Active and inactive are the calls of the source. For most assays here, no stated cut-off is given here; in the data, actives have a measured IC50 and inactives only a lower limit.
Assays:
Bcl-2-related protein A1 = target: T1, Bcl-2-related protein A1 (Mus musculus, UniProt Q07440); type: functional;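 further: confirmatory dose–response counterscreen on Bfl-1, used to check hits from a UBC13 polyubiquitin inhibitor campaign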
T1 sequence (Q07440 whole entry): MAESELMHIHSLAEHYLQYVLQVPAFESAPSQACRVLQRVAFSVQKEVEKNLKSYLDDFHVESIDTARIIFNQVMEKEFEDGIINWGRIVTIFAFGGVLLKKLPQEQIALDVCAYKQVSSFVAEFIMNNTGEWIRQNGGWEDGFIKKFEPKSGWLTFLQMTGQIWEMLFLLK

[1] = target: T2, Ubiquitin-conjugating enzyme E2 N (Homo sapiens, UniProt P61088); type: functional
T2 sequence (P61088 whole entry): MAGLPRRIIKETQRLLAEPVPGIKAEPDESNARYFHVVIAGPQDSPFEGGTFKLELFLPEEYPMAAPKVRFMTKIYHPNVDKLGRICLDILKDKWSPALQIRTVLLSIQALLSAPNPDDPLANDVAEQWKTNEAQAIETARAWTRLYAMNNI

[2] = target: T2, Ubiquitin-conjugating enzyme E2 N; type: functional; remark: listed apart in the source
Nonstructural protein 1 = Nonstructural protein 1 (Influenza A virus, UniProt Q194T2); type: functional, Influenza A virus (A/California/07/2009(H1N1))
Sequence of Nonstructural protein 1 (Q194T2 whole entry): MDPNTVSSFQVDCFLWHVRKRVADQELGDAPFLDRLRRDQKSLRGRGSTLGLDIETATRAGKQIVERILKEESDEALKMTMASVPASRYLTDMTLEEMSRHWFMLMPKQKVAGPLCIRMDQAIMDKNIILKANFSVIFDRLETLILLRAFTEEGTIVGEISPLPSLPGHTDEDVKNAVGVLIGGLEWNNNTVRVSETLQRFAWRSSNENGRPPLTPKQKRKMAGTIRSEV

[3] = target: Glyceraldehyde-3-phosphate dehydrogenase (Homo sapiens, UniProt P04406)
Sequence of Glyceraldehyde-3-phosphate dehydrogenase (P04406 whole entry): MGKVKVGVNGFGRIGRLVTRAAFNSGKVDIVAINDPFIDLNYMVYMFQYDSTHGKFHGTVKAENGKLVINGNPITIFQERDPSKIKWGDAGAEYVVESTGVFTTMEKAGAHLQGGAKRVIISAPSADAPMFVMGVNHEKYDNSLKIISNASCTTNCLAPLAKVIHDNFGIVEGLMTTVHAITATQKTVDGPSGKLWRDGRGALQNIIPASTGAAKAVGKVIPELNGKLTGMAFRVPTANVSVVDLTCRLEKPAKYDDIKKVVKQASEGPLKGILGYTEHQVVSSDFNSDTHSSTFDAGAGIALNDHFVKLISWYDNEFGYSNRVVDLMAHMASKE

[4] = target: T3, Alkaline phosphatase, tissue-nonspecific isozyme (Homo sapiens, UniProt P05186); experiment: human TNAP enzyme inhibitors, SAR follow-up, biochemical, luminescent, dose response (AID 1056)
T3 sequence (P05186 whole entry): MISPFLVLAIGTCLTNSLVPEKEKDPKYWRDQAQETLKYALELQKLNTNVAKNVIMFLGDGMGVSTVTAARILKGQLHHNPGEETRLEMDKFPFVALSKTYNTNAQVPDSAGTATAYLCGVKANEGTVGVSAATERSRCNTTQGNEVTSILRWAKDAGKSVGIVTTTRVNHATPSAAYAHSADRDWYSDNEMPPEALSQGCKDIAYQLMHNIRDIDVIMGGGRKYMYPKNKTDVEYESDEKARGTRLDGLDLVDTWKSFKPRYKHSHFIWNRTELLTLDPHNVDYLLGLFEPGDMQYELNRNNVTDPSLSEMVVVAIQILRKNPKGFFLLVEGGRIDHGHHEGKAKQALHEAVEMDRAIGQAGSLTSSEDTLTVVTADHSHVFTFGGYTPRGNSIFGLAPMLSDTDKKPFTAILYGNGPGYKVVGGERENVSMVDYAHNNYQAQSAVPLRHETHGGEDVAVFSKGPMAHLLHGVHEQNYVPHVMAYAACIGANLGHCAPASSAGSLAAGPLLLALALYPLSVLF

Caspase-3 = target: T4, Caspase-3 (Homo sapiens, UniProt P42574); type: functional;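 further: Dose-response selectivity test against caspase-3 for candidate inhibitors of sentrin-specific proteases (SENPs)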
T4 sequence (P42574 whole entry): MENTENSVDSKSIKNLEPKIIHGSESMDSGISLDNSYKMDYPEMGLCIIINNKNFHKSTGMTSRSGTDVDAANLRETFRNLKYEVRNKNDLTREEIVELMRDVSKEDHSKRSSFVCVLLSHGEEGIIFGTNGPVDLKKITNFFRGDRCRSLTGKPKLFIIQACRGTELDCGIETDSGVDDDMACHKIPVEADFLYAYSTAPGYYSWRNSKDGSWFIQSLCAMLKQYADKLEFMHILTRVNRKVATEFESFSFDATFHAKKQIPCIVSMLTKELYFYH

[5] = target: T5, Sentrin-specific protease 7 (Homo sapiens, UniProt Q9BQF6); type: functional;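 further: Luminescence-based dose-response confirmation of ultra-high-throughput screening hits, measuring inhibition of SENP7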
T5 sequence (Q9BQF6 whole entry): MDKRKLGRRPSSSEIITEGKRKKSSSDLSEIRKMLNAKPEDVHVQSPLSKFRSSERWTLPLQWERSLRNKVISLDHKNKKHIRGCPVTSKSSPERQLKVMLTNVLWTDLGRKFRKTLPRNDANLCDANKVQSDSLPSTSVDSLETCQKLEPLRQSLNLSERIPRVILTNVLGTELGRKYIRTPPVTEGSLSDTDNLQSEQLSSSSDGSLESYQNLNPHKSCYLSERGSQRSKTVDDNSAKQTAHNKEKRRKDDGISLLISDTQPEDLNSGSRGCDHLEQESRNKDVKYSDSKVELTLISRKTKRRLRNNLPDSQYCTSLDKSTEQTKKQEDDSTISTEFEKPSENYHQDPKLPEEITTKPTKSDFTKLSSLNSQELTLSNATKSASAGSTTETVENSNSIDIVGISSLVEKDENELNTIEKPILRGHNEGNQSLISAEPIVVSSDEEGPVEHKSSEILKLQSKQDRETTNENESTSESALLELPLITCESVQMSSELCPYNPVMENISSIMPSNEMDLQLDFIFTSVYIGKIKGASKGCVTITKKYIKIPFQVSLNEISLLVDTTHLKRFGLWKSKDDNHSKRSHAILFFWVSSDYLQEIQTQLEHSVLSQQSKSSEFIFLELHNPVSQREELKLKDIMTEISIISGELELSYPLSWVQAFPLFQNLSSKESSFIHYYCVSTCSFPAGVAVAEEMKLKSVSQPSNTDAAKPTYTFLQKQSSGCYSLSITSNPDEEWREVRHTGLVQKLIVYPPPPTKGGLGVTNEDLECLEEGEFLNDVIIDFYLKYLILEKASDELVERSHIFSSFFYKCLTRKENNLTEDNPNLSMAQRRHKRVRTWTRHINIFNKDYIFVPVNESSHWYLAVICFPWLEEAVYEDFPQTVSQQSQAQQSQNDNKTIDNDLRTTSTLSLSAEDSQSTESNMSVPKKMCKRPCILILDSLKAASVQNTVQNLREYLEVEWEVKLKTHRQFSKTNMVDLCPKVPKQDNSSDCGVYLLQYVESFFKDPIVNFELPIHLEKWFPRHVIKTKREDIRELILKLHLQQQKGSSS

[6] = target: T6, Sentrin-specific protease 6 (Homo sapiens, UniProt Q9GZR1); type: functional;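 further: Luminescence-based dose-response confirmatory assay of SENP6 inhibition, following up an ultra-high-throughput screen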
T6 sequence (Q9GZR1 whole entry): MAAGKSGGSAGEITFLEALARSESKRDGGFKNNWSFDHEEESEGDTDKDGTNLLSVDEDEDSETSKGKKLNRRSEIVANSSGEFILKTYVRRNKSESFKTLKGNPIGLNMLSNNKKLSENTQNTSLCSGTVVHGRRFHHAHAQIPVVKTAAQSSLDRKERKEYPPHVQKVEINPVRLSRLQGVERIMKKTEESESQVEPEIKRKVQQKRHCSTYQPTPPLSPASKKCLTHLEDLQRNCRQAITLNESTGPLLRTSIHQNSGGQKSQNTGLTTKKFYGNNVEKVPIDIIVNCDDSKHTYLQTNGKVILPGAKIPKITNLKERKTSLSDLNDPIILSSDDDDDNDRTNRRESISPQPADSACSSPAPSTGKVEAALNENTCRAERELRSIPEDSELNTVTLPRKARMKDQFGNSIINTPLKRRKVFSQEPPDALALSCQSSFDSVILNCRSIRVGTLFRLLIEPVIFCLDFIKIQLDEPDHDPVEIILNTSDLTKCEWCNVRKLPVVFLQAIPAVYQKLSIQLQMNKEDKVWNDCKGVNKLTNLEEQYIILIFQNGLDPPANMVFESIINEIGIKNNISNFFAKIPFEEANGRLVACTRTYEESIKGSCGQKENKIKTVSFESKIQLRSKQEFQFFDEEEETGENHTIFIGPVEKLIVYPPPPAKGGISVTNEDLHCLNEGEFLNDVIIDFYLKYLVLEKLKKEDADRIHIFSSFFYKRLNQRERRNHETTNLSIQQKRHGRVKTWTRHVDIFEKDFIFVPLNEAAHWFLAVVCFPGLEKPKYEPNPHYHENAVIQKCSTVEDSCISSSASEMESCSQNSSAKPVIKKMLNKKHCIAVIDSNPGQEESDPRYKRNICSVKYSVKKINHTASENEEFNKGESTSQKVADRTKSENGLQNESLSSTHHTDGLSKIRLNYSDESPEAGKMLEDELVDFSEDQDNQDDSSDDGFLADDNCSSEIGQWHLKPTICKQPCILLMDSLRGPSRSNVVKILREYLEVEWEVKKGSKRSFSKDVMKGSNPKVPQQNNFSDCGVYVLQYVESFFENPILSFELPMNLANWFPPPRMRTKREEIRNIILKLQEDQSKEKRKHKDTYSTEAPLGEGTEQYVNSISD

[7] = target: T7, Sentrin-specific protease 8 (Homo sapiens, UniProt Q96LD8); type: functional;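 further: luminescence read-out of SENP8 inhibition, dose-response confirmation following an ultra-high-throughput screen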
T7 sequence (Q96LD8 whole entry): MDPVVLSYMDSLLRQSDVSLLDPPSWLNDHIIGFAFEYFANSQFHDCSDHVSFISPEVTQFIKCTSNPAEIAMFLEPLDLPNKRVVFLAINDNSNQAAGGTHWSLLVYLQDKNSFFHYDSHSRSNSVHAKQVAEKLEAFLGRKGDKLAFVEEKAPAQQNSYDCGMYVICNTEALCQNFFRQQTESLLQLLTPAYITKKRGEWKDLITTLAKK

[8] = system: Streptococcus sp. 'group A'; experiment: growth inhibition of control SK(-) GAS strain, dose response, counter-screen for streptokinase expression inhibitor project, luminescence, kanamycin, BacTiterGlo, confirmation (AID 1900); type: functional, organism-based
Streptococcus = experiment: Group A Streptococcus viability loss, dose response, counter-screen for streptokinase expression inhibitor project, luminescence, BacTiterGlo (AID 1915); type: functional, organism-based;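 further: potency for reduction of bacterial viability or growth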
[9] = target: T8, Short transient receptor potential channel 4 (Mus musculus, UniProt Q9QUQ5); experiment: mouse TRPC4 channel activators, dose response, cell-based, HEK293 TRPC4/mu-opioid, Fluo-4 calcium (AID 434937); type: functional
T8 sequence (Q9QUQ5 whole entry): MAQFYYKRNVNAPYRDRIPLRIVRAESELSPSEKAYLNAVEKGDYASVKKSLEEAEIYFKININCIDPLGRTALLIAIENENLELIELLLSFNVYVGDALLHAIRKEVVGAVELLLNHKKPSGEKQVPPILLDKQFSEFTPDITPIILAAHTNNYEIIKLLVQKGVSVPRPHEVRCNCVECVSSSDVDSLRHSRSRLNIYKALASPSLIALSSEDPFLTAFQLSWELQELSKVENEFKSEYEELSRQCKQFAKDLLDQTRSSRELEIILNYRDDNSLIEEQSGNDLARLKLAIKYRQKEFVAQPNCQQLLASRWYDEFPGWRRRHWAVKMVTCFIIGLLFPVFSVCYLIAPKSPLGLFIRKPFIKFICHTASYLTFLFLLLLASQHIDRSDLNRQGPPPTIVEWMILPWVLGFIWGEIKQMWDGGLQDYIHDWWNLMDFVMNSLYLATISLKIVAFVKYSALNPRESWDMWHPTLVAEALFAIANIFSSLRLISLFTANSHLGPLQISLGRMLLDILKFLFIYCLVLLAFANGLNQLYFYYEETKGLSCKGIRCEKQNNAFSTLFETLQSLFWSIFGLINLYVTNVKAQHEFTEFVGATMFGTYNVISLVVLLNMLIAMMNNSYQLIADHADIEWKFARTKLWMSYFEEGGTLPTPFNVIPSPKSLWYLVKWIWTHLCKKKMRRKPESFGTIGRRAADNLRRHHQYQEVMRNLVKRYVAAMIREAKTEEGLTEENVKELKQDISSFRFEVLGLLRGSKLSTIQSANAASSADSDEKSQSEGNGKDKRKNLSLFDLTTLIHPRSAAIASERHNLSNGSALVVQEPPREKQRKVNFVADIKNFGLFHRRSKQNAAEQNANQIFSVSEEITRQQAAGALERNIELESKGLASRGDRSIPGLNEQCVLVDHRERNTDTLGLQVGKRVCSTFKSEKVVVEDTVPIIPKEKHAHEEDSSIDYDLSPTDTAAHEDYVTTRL

Vero [10] = experiment: cells; type: functional, cell-based; conditions: Chlorocebus sabaeus
Vero [11] = experiment: cells; type: functional; conditions: Chlorocebus sabaeus
H9c2 = experiment: cells; type: functional, cell-based; conditions: Rattus norvegicus, H9c2, Myocardium;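 further: confirmatory concentration-response retest of ultra-high-throughput screening hits for modulation of myocardial damage; cell death induced by hydrogen peroxide oxidative stress; compound pretreatment for 60 min then peroxide exposure for 2 h; potency is for protecting the cells against peroxide damage rather than for killing them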

`Oc1cc(Nc2ccncc2)cc2cccnc12` was tested. Which IC50 (Bcl-2-related protein A1) did it give?
Its IC50 is > 20 µM (inactive).

What about the IC50 [1] of the same molecule?
The IC50 was 8.54 µM (active).

What about the IC50 [2] of the same molecule?
Its IC50 is 6.9 µM (active).

And the IC50 (Nonstructural protein 1)?
Its IC50 is 5.11 µM (active).

What does the source list for `O=C1c2cccc3cccc(c23)N1Cc1ccc(F)cc1`?
IC50 (Bcl-2-related protein A1): > 20 µM (inactive); IC50 [1]: 6.78 µM (active); IC50 [2]: 5.15 µM (active)

How did the IC50 [3] turn out when `COc1ccc(S(=O)(=O)n2cc(C(N)=O)c3ccccc32)cc1` was run?
The IC50 was > 100 µM (not active).

And the IC50 [4]?
The IC50 was > 100 µM (inactive).

Which results are given for `COc1cccc(NC(=O)C(S)=NC2CCCCC2)c1`?
IC50 (Caspase-3): 17.9 µM (active); IC50 [5]: 5.39 µM (active); IC50 [6]: 20.8 µM (active); IC50 [7]: 23 µM (active)

Which results are given for `CCCOc1ccc(C(=O)NC(=S)NNC(=O)c2c(-c3ccccc3)noc2C)cc1`?
EC50 [8]: 0.137 µM (active); EC50 (Streptococcus): 0.596 µM (active); EC50 [9]: 2.66 µM (active); IC50 (Vero [10]): > 25 µM (active); CC50 (Vero [11]): 12.1 µM (active)

What does the source list for `CN(Cc1ccccc1)C(=O)COC(=O)c1cc(-c2ccc(Cl)s2)nc2ccccc12`?
IC50 (Bcl-2-related protein A1): > 20 µM (inactive); IC50 [1]: 11.8 µM (active); IC50 [2]: > 20 µM (inactive)

Which results are given for `COC(=O)c1ccc(N=Nc2ccccc2)cc1`?
IC50 (Caspase-3): 11.6 µM (active); IC50 [5]: 5.11 µM (active); IC50 [6]: 13.2 µM (active); IC50 [7]: 20.2 µM (active)

Which results are given for `O=S(=O)(Nc1ccc2ncccc2c1)c1ccccc1OC(F)(F)F`?
IC50 [3]: > 100 µM (not active); IC50 [4]: > 100 µM (inactive)

How did the EC50 [9] turn out when `COc1ccc(Cl)cc1C(=O)Nc1ccccc1N1CCN(C)CC1` was run?
The EC50 was 5.96 µM (active).

With `CCOC(=O)C1=C(COC(=O)c2cc(OC)c(OC)c(OC)c2)NC(=O)NC1C` (stereo unspecified) as the molecule, how does the IC50 (Bcl-2-related protein A1) read?
The IC50 was > 20 µM (inactive).

What about the IC50 [1] of the same molecule?
The IC50 was 6.85 µM (active).

What about the IC50 [2] of the same molecule?
Its IC50 is 8.55 µM (active).

And the IC50 (H9c2)?
The IC50 was 11.2 µM (active).

Which results are given for `COc1ccccc1NC(=O)CCSc1ccc(C)cc1`?
IC50 (Caspase-3): 18.1 µM (active); IC50 [5]: 11.2 µM (active); IC50 [6]: 34.9 µM (active); IC50 [7]: 37 µM (active)

Reference: ChEMBL document CHEMBL1201862, “PubChem BioAssay data set” (2004)
